Measured values as given in patent US6037348A (priority 1997, dated 2000).
≈ marks a conversion by molar mass, not a printed value. Like-named read-outs stand apart in the source and are kept apart here.

What was measured:
B/GL = assay: Antiviral plaque assay, B/GL; format: cell-based; settings: Influenza B virus, MDCK cells
Procedure: (§1) The in vitro anti-influenza activities of COMPOUND A, COMPOUND B, COMPOUND C and amantadine were evaluated using a standard plaque assay such as described in Hayden et al., Antimicrob. Agents Chemother., vol. 17, pages 865-870, (1980), herein incorporated by reference. In this assay, influenza virus-infected Madin Darby canine kidney (MDCK) cells were untreated or treated with serial dilutions of each compound. The concentration of compound required to inhibit viral plaque formation by 50% (IC50) was determined from the linear regression line of the plot of compound concentration versus percent inhibition of plaque formation. In addition, the IC50 can be determined by the method of Reed and Muench, Am. J. Hyg, vol. 27, 493-497 (1938) which is herein incorporated by reference.

B/Maryland = assay: Antiviral plaque assay, B/Maryland; format: cell-based; settings: Influenza B virus, MDCK cells
Procedure: as §1

A/AICHI H3N2 = assay: Antiviral plaque assay, A/AICHI H3N2; settings: MDCK cells
Procedure: as §1

A/NWS H1N1 = assay: Antiviral plaque assay, A/NWS H1N1; settings: MDCK cells
Procedure: as §1

A/FM/1/47 H1N1 = assay: Antiviral plaque assay, A/FM/1/47 H1N1; settings: MDCK cells
Procedure: as §1

B/Lee = assay: Antiviral plaque assay, B/Lee; format: cell-based; settings: Influenza B virus, MDCK cells
Procedure: as §1

M2 ion channel = settings: influenza A; cited from earlier work
[1] = test system: influenza A/Kawasaki (A/KAW H1N1); assay: Antiviral plaque assay, A/KAW H1N1; settings: MDCK cells
Procedure: as §1

A/AA H2N2 = assay: microbe, parasite or virus in culture; settings: H2N2, MDCK
BVDV = assay: microbe, parasite or virus in culture; format: cell-based, bovine diarrheal virus (BVDV); settings: Bovine viral diarrhea virus isolates and strains, MDBK, in Bos taurus
infectious virions = test system: infectious virions; design: species or system influenza virus
in vitro = settings: bovine, mdbk cells
[2] = read-out: IC50 (virus replication inhibited by 50%)

| SMILES | IC50 (B/GL) [µg/mL] | IC50 (B/Maryland) [µg/mL] | IC50 (A/AICHI H3N2) [µg/mL] | IC50 (A/NWS H1N1) [µg/mL] | IC50 (A/FM/1/47 H1N1) [µg/mL] | IC50 (B/Lee) [µg/mL] | IC50 [1] [µg/mL] | IC50 (A/AA H2N2) [µg/mL] | IC50 (BVDV; read-out: IC50) [µg/mL] | IC50 (BVDV; [2]) [µg/mL] | CC50 (in vitro) [µg/mL] | other results |
| --- | --- | --- | --- | --- | --- | --- | --- | --- | --- | --- | --- | --- |
| NC12CC3CC(CC(C3)C1)C2 [Amantadine, amantadine, reference compound] | > 10 | > 10 | 0.076 (≈ 0.502 µM) | > 10 | 0.13 (≈ 0.859 µM) | > 10 | 0.036 (≈ 0.238 µM) | 0.037 (≈ 0.245 µM) |  |  |  | function of the M2 ion channel activity (M2 ion channel): inhibiting the function of the M2 ion channel activity |
| COC(=O)[C@@]1(C)CCC[C@]2(C)c3cc(OC)ccc3C(=O)C[C@@H]12 [COMPOUND A] | 5.65 (≈ 17.9 µM) | ~2.7 (≈ 8.53 µM) | ~10 (≈ 31.6 µM) | > 10 | < 0.032 | ~1.23 (≈ 3.89 µM) | < 0.032 | < 0.032 | 13.5 (≈ 42.6 µM) | 3.56 (≈ 11.3 µM) | 51.8 (≈ 164 µM) | IC50 (BVDV; read-out: concentration inhibiting replication by 50%): 3.5 µg/mL (≈ 11.1 µM); IC90 (BVDV; read-out: concentration inhibiting replication by 90%): 13.4 µg/mL (≈ 42.4 µM); susceptibility of A/WSN/33 (influenza A/WSN/33): naturally resistant; antiviral activity after pre-incubation with infectious virions (infectious virions): inactive; effect on fusion of human erythrocytes with A/WSN/33-infected MDCK cells (HA of A/WSN/33): no effect; effect on expression of HA on the infected cell surface (erythrocyte binding) (HA of A/Kawasaki/86): no effect; low pH-induced fusion of MDCK cells with human erythrocytes (HA of A/Kawasaki/86; pH 4.8): inhibition of the low pH-induced fusion |
| O=C(NCC(c1ccccc1)c1ccncc1)Nc1ccccc1Cl (centres unmarked) [COMPOUND B] | 2.83 (≈ 8.04 µM) | ~2.23 (≈ 6.34 µM) | ~7.26 (≈ 20.6 µM) | ~9.59 (≈ 27.3 µM) | 0.18 (≈ 0.512 µM) | ~1.08 (≈ 3.07 µM) | 0.024 (≈ 0.0682 µM) | 0.15 (≈ 0.426 µM) |  |  |  |  |
| O=C(O)CCC1(c2ccccc2)CCCCC1 [COMPOUND C] | > 10 | 6.34 (≈ 27.3 µM) | ~10 (≈ 43 µM) | > 10 | 0.15 (≈ 0.646 µM) | > 10 | 0.07 (≈ 0.301 µM) | 0.069 (≈ 0.297 µM) |  |  |  |  |
| COC(=O)C1(C)CCCC2(C)c3ccc(O)cc3C(=O)CC12 (centres unmarked) [Compound I] |  |  |  |  |  |  |  |  | 16 (≈ 53 µM) | 4.94 (≈ 16.3 µM) | 32 (≈ 106 µM) |  |
| COC(=O)[C@@]1(C)CCC[C@@]2(C)C1=CC(=NO)c1ccc(OC)cc12 [J] |  |  |  |  |  |  |  |  | 8.9 (≈ 27 µM) | 5.25 (≈ 15.9 µM) | 30.8 (≈ 93.4 µM) |  |
| COC(=O)C1(C)CCCC2(C)c3ccccc3C(=O)CC12 (centres unmarked) [K] |  |  |  |  |  |  |  |  | 51 (≈ 178 µM) | 15 (≈ 52.3 µM) | > 100 |  |
| CC(N)C12CC3CC(CC(C3)C1)C2 (centres unmarked) [rimantadine] |  |  |  |  |  |  |  |  |  |  |  | function of the M2 ion channel activity (M2 ion channel): inhibiting the function of the M2 ion channel activity |
